{"source": "patent US12325690B2", "about": "“Compounds for the reducing lipotoxic damage” (Mayo Foundation for Medical Education and Research, priority 2017, dated 2025)", "key": {"[1]": {"molecular_target": "T1, recombinant human pancreatic lipase related protein 2 (hPLRP2) (Homo sapiens, UniProt P54317)", "T1 sequence (P54317 18-469)": "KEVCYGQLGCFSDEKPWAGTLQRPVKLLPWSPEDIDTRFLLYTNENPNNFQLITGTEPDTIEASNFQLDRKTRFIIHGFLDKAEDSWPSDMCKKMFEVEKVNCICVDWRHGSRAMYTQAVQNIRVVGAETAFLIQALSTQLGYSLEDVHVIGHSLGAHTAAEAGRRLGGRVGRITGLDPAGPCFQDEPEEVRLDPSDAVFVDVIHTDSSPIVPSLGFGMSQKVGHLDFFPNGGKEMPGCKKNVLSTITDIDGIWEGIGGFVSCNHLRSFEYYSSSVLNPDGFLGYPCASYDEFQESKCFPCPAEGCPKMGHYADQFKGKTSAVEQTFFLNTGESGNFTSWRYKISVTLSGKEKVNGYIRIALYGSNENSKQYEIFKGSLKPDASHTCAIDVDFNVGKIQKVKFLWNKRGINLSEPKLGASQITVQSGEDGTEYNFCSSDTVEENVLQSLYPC", "assay": "FFA generation by recombinant hPLRP2", "assay_type": "biochemical", "conditions": "% FFA generation; read-out: IC50 against hPLRP2", "protocol": "(§1) The efficacy of a selection of the prepared analogs was explored to determine their ability to inhibit free fatty acid (FFA) generation from recombinant human lipases while retaining stability. To test these features, the analogs were dissolved in ethanol (200 mM stock) and further diluted to a 600 micromolar (0.3% ethanol) working stock in PBS. The agents were incubated with the recombinant enzymes in serial ⅓ dilutions spanning a range of 200 to 0.3 micromolar for 30 minutes, and then added to the substrate 1 mM glyceryl trilinoleate (GTL) in PBS, pH 7.4 along with cofactor colipase (CLPS; 0.5 mcg/ml).\n(§2) These lipases form 15-30% of pancreatic lipases."}, "[2]": {"molecular_target": "T2, recombinant human pancreatic tri-acyl glycerol lipase [PNLIP; hPTL] (Homo sapiens, UniProt P16233)", "T2 sequence (P16233 17-465)": "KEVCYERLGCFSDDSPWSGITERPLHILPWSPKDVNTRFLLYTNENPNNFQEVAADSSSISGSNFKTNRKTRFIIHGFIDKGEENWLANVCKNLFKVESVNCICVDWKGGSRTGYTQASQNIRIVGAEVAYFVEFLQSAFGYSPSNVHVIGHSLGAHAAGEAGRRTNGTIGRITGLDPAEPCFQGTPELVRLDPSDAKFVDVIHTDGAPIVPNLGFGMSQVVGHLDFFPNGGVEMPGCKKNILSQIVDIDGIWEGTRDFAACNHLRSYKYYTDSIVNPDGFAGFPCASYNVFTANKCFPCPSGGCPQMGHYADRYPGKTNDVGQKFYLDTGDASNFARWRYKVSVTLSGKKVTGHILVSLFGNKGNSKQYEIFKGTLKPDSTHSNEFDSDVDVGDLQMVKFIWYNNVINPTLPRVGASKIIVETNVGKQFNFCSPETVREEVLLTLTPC", "T2 sequence (P04118 23-112 partner)": "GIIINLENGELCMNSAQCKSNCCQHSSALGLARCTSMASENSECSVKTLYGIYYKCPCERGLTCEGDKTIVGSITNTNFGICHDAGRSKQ", "assay": "FFA generation from glyceryl trilinoleate by recombinant hPNLIP with colipase", "assay_type": "biochemical", "protocol": "as §1"}, "[3]": {"system": "Mouse pancreatic acinar cells", "assay": "Toxicity study in pancreatic acinar cells (ATP levels, LDH leakage)", "assay_type": "cell-based", "conditions": "4 hours, 20-200 micromolar range", "protocol": "Toxicity studies of the relevant compounds were also performed using by diluting the original ethanol stock 200 mM into the incubation medium for acinar cells (HEPES buffer, pH 7.4, as described by Navina et al) 600 micromolar stock solutions of the compounds in 0.3% ethanol in PBS. These were added to acinar cells at ⅓ dilutions starting at 200 micromolar. Mouse pancreatic acinar ATP levels and LDH leakage were measured over 4 hours and compared to control. Any number positive over control indicates % injury greater than control acini."}, "[4]": {"system": "Propionibacterium acnes (Strain VPI0389, ATCC)", "assay": "Lipolysis / FFA generation by P. acnes culture", "assay_type": "cell-based", "conditions": "broth FFA generation and spirit blue agar", "protocol": "For medium, 2.0 g of Casein hydrolysate enzymatic digest (Cat #12855, Affymetrix Inc, Ohio, USA), 1.0 g of Yeast extract (Cat #61180-5000, Acros organics, New Jersey, USA) and 0.03 g of Victoria Blue B (Cat #sc-216055, Santa Crutz Biotechnology Inc, California, USA) were dissolved completely in 200 ml of double distilled water with mild heating. The mixed solution was sterilized by autoclaving at 15 lbs pressure (121° C.) for 15 min. The autoclaved solution allowed to cool down to 50° C., then 6 ml of emulsified lipase substrate slowly added with continuous stirring to get an even distribution and stored at 4° C. for P. acnes culture.\nLipase substrate preparation: Lipase substrate was prepared by mixing 200 μl of Tween 80 (Cat #P4780, Sigma, St louis, USA) in 100 ml of warm double distilled water and 25 ml of Cotton seeds oil (Cat #C0145, Spectrum chemical, California, USA). […]\nA small part of lyophilized Propionibacterium acnes (Strain VPI0389, ATCC) was added to the medium and allowed to grow at 37° C. for 48 h in a BD GasPak EZ standard incubation container (Cat #260671, Beckton Dickinson, MD, USA) with two anaerobe Sachets (Cat #260683, Beckton Dickinson, MD, USA) which maintained the anaerobic condition within the container. After 48 h of culture, bacterial count was measured by turbidity (OD600 nm) method. […]"}, "[5]": {"system": "ob/ob mice with severe pancreatitis", "assay": "Caerulein-induced severe pancreatitis in obese ob/ob mice", "conditions": "20 mg/kg single intraperitoneal dose", "quoted_text": "Genetically obese male ob/ob mice (50-60 gm) were used and baseline tail vein blood draw was collected for serum lipase, triglycerides, and BUN (blood urea nitrogen). […] Severe pancreatitis was induced by implanting an alzet pump subcutaneously containing 2.5 mg/ml caerulein, which was administered at a dose of 50 mc/kg/hr. Six hours later a tail vein sample (50 microliters) was tested for serum lipase to verify an increase >3 fold basal.\nAnimals were sacrificed if they were moribund."}, "pancreatic lysate lipase": {"molecular_target": "T3, pancreatic lysate lipase (Mus musculus, UniProt Q6P8U6)", "T3 construct": "efficacy against mouse pancreatic lysates; other: summary of strengths of 767; efficacy as a solution when left overnight; other: solution left overnight; efficacy in the lipase activity assay compared with orlistat when fresh; other: fresh solution; IC50 of orlistat after overnight incubation (nearest tested concentration); other: after overnight incubation; improvement in stability and e", "T3 sequence (Q6P8U6 17-465)": "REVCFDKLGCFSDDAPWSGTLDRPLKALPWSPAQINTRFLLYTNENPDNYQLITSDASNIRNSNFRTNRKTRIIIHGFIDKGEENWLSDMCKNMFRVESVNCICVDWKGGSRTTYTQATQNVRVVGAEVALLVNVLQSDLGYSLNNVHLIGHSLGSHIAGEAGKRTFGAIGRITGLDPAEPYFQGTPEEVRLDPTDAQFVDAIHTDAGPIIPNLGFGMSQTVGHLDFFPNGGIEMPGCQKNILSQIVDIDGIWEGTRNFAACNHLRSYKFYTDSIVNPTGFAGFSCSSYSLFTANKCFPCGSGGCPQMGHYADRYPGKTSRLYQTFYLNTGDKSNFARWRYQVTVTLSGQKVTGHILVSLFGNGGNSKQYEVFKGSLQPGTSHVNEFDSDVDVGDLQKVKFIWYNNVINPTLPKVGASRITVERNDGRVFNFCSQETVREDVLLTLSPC", "assay": "Lipase activity assay with pancreatic lysate (commercial Pointe scientific lipase assay)", "assay_type": "biochemical", "protocol": "To test the efficacy of these compounds, the agents were dissolved as a 20 mM stock in ethanol, and further diluted to in PBS as a 600 micromolar working stock (3.3% ethanol). This was either used immediately or left at room temperature for 16-20 hours overnight before retesting efficacy. The agents were incubated with a pancreatic lysate in serial ⅓ dilutions spanning a range of 200 to 0.3 micromolars for 30 minutes. 5 microliters of these mixtures were then used to measure lipase activity using a commercial lipase assay (Pointe scientific) containing a monoacyl glycerol lipase in the reagent. The lipase assay was done using reagents in proportion to the recommended protocol. Values were depicted as % maximal lipase activity of the well without any inhibitor."}, "[6]": {"molecular_target": "T4, carboxyester lipase (hCEL) (Homo sapiens, UniProt P19835)", "T4 sequence (P19835 21-753)": "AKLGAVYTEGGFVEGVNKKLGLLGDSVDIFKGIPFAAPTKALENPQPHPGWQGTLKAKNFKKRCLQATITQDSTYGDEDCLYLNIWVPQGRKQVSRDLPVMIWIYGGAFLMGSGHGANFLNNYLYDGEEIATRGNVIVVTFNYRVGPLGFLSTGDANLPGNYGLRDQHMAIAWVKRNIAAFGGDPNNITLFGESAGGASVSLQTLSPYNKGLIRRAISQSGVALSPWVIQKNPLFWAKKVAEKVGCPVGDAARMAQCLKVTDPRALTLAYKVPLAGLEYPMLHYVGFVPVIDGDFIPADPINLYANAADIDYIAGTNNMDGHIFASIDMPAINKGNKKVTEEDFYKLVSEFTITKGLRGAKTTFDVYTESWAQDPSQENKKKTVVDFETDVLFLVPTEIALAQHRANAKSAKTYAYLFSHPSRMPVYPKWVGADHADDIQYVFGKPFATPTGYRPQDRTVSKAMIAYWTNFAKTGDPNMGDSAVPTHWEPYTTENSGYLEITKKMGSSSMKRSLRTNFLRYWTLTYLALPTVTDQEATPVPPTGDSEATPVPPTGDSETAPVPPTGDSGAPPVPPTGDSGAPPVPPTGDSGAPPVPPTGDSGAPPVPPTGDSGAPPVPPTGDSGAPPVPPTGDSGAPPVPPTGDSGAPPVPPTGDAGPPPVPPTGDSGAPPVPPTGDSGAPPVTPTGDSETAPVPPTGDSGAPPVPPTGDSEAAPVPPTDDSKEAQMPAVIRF", "assay": "FFA generation by recombinant hCEL", "assay_type": "biochemical", "conditions": "% FFA generation; read-out: IC50 against hCEL", "protocol": "as §1, §2"}, "[7]": {"system": "acinar cells incubated with GTL", "assay": "GTL induced acinar injury (LDH leakage)", "assay_type": "cell-based", "conditions": "10 micromolar", "text": "as §2"}}, "note": "“Also recorded” adds a separate entry of the source.", "data": [{"smiles": "CCCCCCCCCCC[C@@H](C[C@@H]1OC(=O)[C@H]1CC)OC(=O)[C@H](C)NC=O", "note": "[Compound 767]", "values": [{"measurement": "IC50", "setting": "[1]", "result": "≤ 2000", "unit": "nM"}, {"measurement": "IC50 against hPNLIP, fold lower than orlistat or 741", "setting": "[2]; in the presence of colipase (CLPS), 1 mM GTL substrate", "result": 50, "unit": "×"}, {"measurement": "stability in aqueous solution", "setting": "[2]; retention of inhibition after overnight storage", "result": "best stability; also recorded: better stability in aqueous media"}, {"measurement": "IC50", "setting": "[2]; solution stored overnight, with colipase, read-out: IC50 against hPNLIP when stored overnight", "result": "< 2000", "unit": "nM"}, {"measurement": "potency against the most prevalent lipase (hPTL)", "setting": "[2]; summary of strengths of 767", "result": "higher potency"}, {"measurement": "toxicity to acinar cells", "setting": "[3]", "result": "lower toxicity"}, {"measurement": "lipolysis by P. acnes", "setting": "[4]", "result": "inhibited"}, {"measurement": "5 day survival", "setting": "[5]", "result": "8/8"}, {"measurement": "PD (pulse distention, shock)", "setting": "[5]", "result": "290±20", "unit": "μm"}, {"measurement": "UFAs", "setting": "[5]", "result": "2.4 ± 0.4", "unit": "mM"}, {"measurement": "hypertriglyceridemia", "setting": "[5]", "result": "without the hypertriglyceridemia"}, {"measurement": "leucopenia (mice affected)", "setting": "[5]", "result": "0/8"}, {"measurement": "serum calcium", "setting": "[5]", "result": "8.8 ± 1.0", "unit": "mg/dL"}, {"measurement": "temperature (hypothermia)", "setting": "[5]", "result": "94.1±0.8", "unit": "° F."}, {"measurement": "BUN (peak)", "setting": "[5]; caerulein pancreatitis", "result": "18.5 ± 0.9", "unit": "mg/dL"}, {"measurement": "efficacy in the lipase activity assay compared with orlistat when fresh", "setting": "pancreatic lysate lipase; fresh solution", "result": "equivalent efficacy"}, {"measurement": "efficacy as a solution when left overnight", "setting": "pancreatic lysate lipase; solution left overnight", "result": "significantly retained its efficacy"}, {"measurement": "efficacy against mouse pancreatic lysates", "setting": "pancreatic lysate lipase; summary of strengths of 767", "result": "higher efficacy"}, {"measurement": "IC50", "setting": "[6]", "result": "≤ 2000", "unit": "nM"}, {"measurement": "efficacy in reducing GTL induced acinar injury compared with orlistat", "setting": "[7]; LDH leakage", "result": "more efficacious"}, {"measurement": "toxicity compared with orlistat", "setting": "[7]; acinar cells", "result": "less toxic"}]}]}
